From patent publication US20070142266A1, “Combination comprising a P-gp inhibitor and an anti-epileptic drug” (priority 2001, published 2007)

Key:
P-glycoprotein (P-gp) = assay: In vivo microdialysis in adult female Wistar rats: effect of local P-gp inhibitor perfusion on ECF levels of phenytoin in cerebral cortex; design: species or system rat
Method: (§1) In vivo microdialysis in Adult Female Wistar Rats
(§2) The combination of phenytoin (Aldrich, Steinheim, Germany) and a P-gp inhibitor, e.g. PSC833) is given via the microdialysis probe in the right frontal cortex, while a probe in the left cortex served as a vehicle control site. Perfusion with the P-gp inhibitor started 15 to 60 minutes prior to i.p. administration of 50 mg/kg phenytoin. • Animals: Adult female Wistar rats (Harlan-Winkelmann, Germany) kept under controlled environmental conditions are used in the study. • Implantation of guide cannulae: Guide cannulae (CMA/12 polyurethane, Camegie Medicine, Sweden) are implanted into the left and right frontal (motor) cortex under anesthesia. The tips of the guide are positioned at rostral +3.2, lateral +3.2 or 3.2 and ventral 2.0 mm to bregma, coordinates according to Paxinos and Watson, The rat brain in stereotaxic coordinates, Sydney, Academic Press, 1986. • Microdialysis procedure: Microdialysis experiments are performed following a recovery period of at least 3 days after surgery. The microdialysis probe is lowered through the guide cannula to a depth of 5.0 mm according to bregma. 14 to 16 h after insertion, perfusion of the probe is started using Ringer solution (in mM 147 Na^+, 2.3 Ca^2+, 4.0 K^+and 155.6 Cr, pH 6.0). […]

[1] = In vivo microdialysis in adult female Wistar rats: extracellular (ECF) phenytoin levels in cerebral cortex in the absence of a P-gp inhibitor; conditions: rat, cerebral cortex extracellular fluid (microdialysate), ip, 50 mg/kg phenytoin i.p., after maximum levels reached, read-out: average half-life of decrease of ECF concentrations of phenytoin (converted)
Method: as §1, §2

Row | half-life [1] [h] | SMILES | increase of ECF levels of phenytoin above control (ECF plasma ratio of treated site vs vehicle treated controls) (P-glycoprotein (P-gp); 2 mM PSC833 via microdialysis probe, phenytoin 50 mg/kg i.p., ECF plasma ratio comparison) | maximum increase of ECF levels of phenytoin compared to untreated site (P-glycoprotein (P-gp); 2 mM PSC833 via right microdialysis probe started 15 min before phenytoin 50 mg/kg i.p., left cortex vehicle site) [%]
1 | – | C/C=C/C[C@@H](C)C(=O)[C@H]1C(=O)N[C@@H](C(C)C)C(=O)N(C)CC(=O)N(C)[C@@H](CC(C)C)C(=O)N[C@@H](C(C)C)C(=O)N(C)[C@@H](CC(C)C)C(=O)N[C@@H](C)C(=O)N[C@H](C)C(=O)N(C)[C@@H](CC(C)C)C(=O)N(C)[C@@H](CC(C)C)C(=O)N(C)[C@@H](C(C)C)C(=O)N1C [PSC833, [3′-desoxy-3′-oxo-MeBmt]^1-[Val]^2-Ciclosporin A] | about 150% | 70±20
2 | ~4 | O=C1NC(=O)C(c2ccccc2)(c2ccccc2)N1 [phenytoin, 5,5-diphenyl-2,4-imidazolidinedione] | – | –
